Measured values from ChEMBL document CHEMBL1268903, “Biologically active biotin derivatives of schweinfurthin F” (Bioorg Med Chem Lett, 2010).

Legend:
[1] = tested on: A549; assay: Cytotoxicity against human A549 cells; assay type: functional, cell-based
[2] = tested on: SF-295; assay: Cytotoxicity against human SF295 cells; assay type: functional, cell-based
[3] = Cytotoxicity against human NCI60 cells; assay type: functional

SMILES | EC50 [1] [nM] | EC50 [2] [nM] | GI50 [3] [nM]
COCOc1cc(/C=C/c2cc3c(c(OC)c2)O[C@]2(C)CC[C@@H](O)C(C)(C)[C@H]2C3)cc(OC)c1C/C=C(\C)C/C=C/C(C)CNC(=O)CCCC[C@H]1SC[C@H]2NC(=O)N[C@H]21 (stereo partly drawn) | 5000 | 1100 | 
COc1cc(/C=C/c2cc(O)c(C/C=C(\C)CCC=C(C)C)c(O)c2)cc2c1O[C@]1(C)CC[C@@H](O)C(C)(C)[C@H]1C2 [3-DEOXYSCHWEINFURTHIN B] | 4900 |  | 1000
CC(C)=CCC/C(C)=C/Cc1c(O)cc(/C=C/c2cc(O)c3c(c2)C[C@@H]2C(C)(C)[C@H](O)[C@H](O)C[C@@]2(C)O3)cc1O [SCHWEINFURTHIN A] |  |  | 1000
COc1cc(/C=C/c2cc(O)c(CC=C(C)C)c(O)c2)cc2c1O[C@]1(C)CC[C@@H](O)C(C)(C)[C@H]1C2 [SCHWEINFURTHIN F] |  |  | 1000
COCOc1cc(/C=C/c2cc3c(c(OC)c2)O[C@]2(C)CC[C@@H](O)C(C)(C)[C@H]2C3)cc(OC)c1C/C=C(\C)C/C=C/C(C)COC(=O)CCCC[C@H]1SC[C@H]2NC(=O)N[C@H]21 (stereo partly drawn) | > 10000 | 2700 | 
